Reference: US8937071B2, “Compounds as rearranged during transfection (RET) inhibitors” (GlaxoSmithKline Intellectual Property Development Limited, priority 2013, dated 2015)
pIC50: −log10 of the molar value. Where a name gives a salt, the structure may show the parent alone. Read-outs that look alike come from different tables or passages of the source.

Experiments:
[1] = test system: TT cells; assay: RET kinase cell-based proliferation assay; set-up: species or system human; settings: 192 h, read-out: RET IC50
Excerpt: RET Kinase Cell-Based Proliferation Assay

[2] = molecular target: RET kinase (Homo sapiens, UniProt P07949, C634W); assay: RET kinase cell-based mechanistic assay (constitutive RET kinase phosphorylation in TT cells)
Sequence of RET kinase (P07949 29-1114 C634W): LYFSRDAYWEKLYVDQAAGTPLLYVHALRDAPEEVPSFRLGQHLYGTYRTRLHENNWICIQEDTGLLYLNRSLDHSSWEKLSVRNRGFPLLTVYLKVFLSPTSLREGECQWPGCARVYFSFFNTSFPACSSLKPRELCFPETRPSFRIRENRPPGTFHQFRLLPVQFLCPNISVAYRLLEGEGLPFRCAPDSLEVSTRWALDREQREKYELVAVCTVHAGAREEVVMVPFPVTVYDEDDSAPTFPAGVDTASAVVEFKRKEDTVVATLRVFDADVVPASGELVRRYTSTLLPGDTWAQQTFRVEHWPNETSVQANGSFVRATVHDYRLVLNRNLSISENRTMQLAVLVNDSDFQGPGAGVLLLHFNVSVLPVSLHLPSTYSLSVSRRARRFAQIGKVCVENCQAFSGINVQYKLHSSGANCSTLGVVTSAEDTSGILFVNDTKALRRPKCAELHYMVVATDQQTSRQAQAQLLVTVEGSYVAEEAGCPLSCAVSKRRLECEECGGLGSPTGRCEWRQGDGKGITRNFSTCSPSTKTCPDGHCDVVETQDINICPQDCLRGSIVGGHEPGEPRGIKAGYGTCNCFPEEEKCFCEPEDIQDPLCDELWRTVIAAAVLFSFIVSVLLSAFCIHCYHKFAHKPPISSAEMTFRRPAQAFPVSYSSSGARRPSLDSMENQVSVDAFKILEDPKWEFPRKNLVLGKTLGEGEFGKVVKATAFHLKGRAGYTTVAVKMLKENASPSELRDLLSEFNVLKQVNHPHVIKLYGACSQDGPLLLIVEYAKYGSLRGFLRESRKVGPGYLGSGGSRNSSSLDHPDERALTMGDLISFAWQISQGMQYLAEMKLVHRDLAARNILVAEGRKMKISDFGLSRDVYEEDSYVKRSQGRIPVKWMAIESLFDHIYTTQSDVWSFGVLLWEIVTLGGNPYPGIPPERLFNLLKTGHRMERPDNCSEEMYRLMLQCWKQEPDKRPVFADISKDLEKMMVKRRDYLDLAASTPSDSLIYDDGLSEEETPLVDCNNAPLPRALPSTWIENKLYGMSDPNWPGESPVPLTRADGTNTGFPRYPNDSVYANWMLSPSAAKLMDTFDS
Experimental: RET Kinase Cell-Based Mechanistic Assay
The potency of the compound of the invention was tested for its ability to inhibit constitutive RET kinase phosphorylation in cell-based assay. […] 1.0E5 TT cells/well were plated in a 96-well cell culture plate and allowed to adhere overnight. […] IC50s were fitted using GraphPad Prism to a sigmoidal dose response.

[3] = human RET kinase cell-based proliferation assay, TT cells, eight days, CellTiter-Glo, Table 4

Row | Compound | pIC50 [2] | pIC50 [1, 3] | pIC50 ([1]; Homo sapiens, TT)
1 | CCOc1cc(-c2ccc(CC(=O)Nc3cc(C(F)(F)F)ccc3F)c(F)c2)c[nH]c1=O [Example 26, 2-(4-(5-ethoxy-6-oxo-1,6-dihydropyridin-3-yl)-2-fluorophenyl)-N-(2-fluoro-5-(trifluoromethyl)phenyl)acetamide] | – | 5.00 to 6.30 | –
2 | CCOc1cc(-c2ccc(CC(=O)Nc3ccc(CN(C)C)c(C(F)(F)F)c3)c(F)c2)c[nH]c1=O [Example 17, N-(4-((Dimethylamino)methyl)-3-(trifluoromethyl)phenyl)-2-(4-(5-ethoxy-6-oxo-1,6-dihydropyridin-3-yl)-2-fluorophenyl)acetamide, Hydrochloride] | > 7.00 | – | 6.30 to 7.00
3 | CCOc1cc(=O)[nH]cc1-c1ccc(CC(=O)Nc2ccc(C#N)c(C(F)(F)F)c2)cc1F [Example 7, N-(4-Cyano-3-(trifluoromethyl)phenyl)-2-(4-(4-ethoxy-6-oxo-1,6-dihydropyridin-3-yl)-3-fluorophenyl)acetamide] | 6.30 to 7.00 | 6.30 to 7.00 | –
4 | CCOc1cc(-c2ccc(CC(=O)Nc3ccc(Cl)c(Cl)c3)c(F)c2)c[nH]c1=O [Example 18, N-(3,4-Dichlorophenyl)-2-(4-(5-ethoxy-6-oxo-1,6-dihydropyridin-3-yl)-2-fluorophenyl)acetamide] | 5.00 to 6.30 | 5.00 to 6.30 | –
5 | CCOc1cc(-c2ccc(CC(=O)Nc3ccc(C#N)c(C(F)(F)F)c3)c(F)c2)c[nH]c1=O [Example 9, N-(4-Cyano-3-(trifluoro-methyl)phenyl)-2-(4-(5-ethoxy-6-oxo-1,6-dihydro-pyridin-3-yl)-2-fluorophenyl)acetamide] | 6.30 to 7.00 | 6.30 to 7.00 | –
6 | CCOc1cc(-c2ccc(CC(=O)Nc3ccc(CN4CCN(CC)CC4)c(C(F)(F)F)c3)c(F)c2)c[nH]c1=O [Example 21, 2-(4-(5-Ethoxy-6-oxo-1,6-dihydropyridin-3-yl)-2-fluorophenyl)-N-(4-((4-ethylpiperazin-1-yl)methyl)-3-(trifluoromethyl)phenyl)acetamide, 2 Hydrochloride] | – | > 7.00 | –
7 | CCOc1ncc(NC(=O)Cc2ccc(-c3c[nH]c(=O)c(OCC)c3)cc2F)cc1C(F)(F)F [Example 2, N-(6-Ethoxy-5-(trifluoromethyl)pyridin-3-yl)-2-(4-(5-ethoxy-6-oxo-1,6-dihydropyridin-3-yl)-2-fluorophenyl)acetamide, Hydrochloride] | > 7.00 | – | 6.30 to 7.00
8 | CCOc1cc(-c2ccc(CC(=O)Nc3cc(-n4cnc(C)c4)cc(C(F)(F)F)c3)c(F)c2)c[nH]c1=O [Example 11, 2-(4-(5-Ethoxy-6-oxo-1,6-dihydropyridin-3-yl)-2-fluorophenyl)-N-(3-(4-methyl-1H-imidazol-1-yl)-5-(trifluoromethyl)phenyl)acetamide, Hydrochloride] | > 7.00 | – | 6.30 to 7.00

The next lines start with results.

Row | pIC50 [2] | Compound | pIC50 [1, 3] | pIC50 ([1]; Homo sapiens, TT)
9 | > 7.00 | CCOc1cc(-c2ccc(CC(=O)Nc3cc(C(C)(C)C(F)(F)F)on3)c(F)c2)c[nH]c1=O [Example 19, 2-(4-(5-Ethoxy-6-oxo-1,6-dihydropyridin-3-yl)-2-fluorophenyl)-N-(5-(1,1,1-trifluoro-2-methylpropan-2-yl)isoxazol-3-yl)acetamide] | > 7.00 | –
10 | 6.30 to 7.00 | CCOc1cc(-c2ccc(CC(=O)Nc3ccc(OCCO)c(C(F)(F)F)c3)c(F)c2)c[nH]c1=O [Example 13, 2-(4-(5-Ethoxy-6-oxo-1,6-dihydropyridin-3-yl)-2-fluorophenyl)-N-(4-(2-hydroxyethoxy)-3-(trifluoromethyl)phenyl)acetamide] | 6.30 to 7.00 | –
11 | 6.30 to 7.00 | CCOc1cc(-c2ccc(CC(=O)Nc3ccc(Cl)c(C(F)(F)F)c3)c(F)c2)c[nH]c1=O [Example 16, N-(4-Chloro-3-(trifluoromethyl)phenyl)-2-(4-(5-ethoxy-6-oxo-1,6-dihydropyridin-3-yl)-2-fluorophenyl)acetamide] | > 7.00 | –
12 | 6.30 to 7.00 | CCOc1cc(-c2ccc(CC(=O)Nc3cc(C(F)(F)F)c(F)cc3F)c(F)c2)c[nH]c1=O [Example 24, N-(2,4-difluoro-5-(trifluoromethyl)phenyl)-2-(4-(5-ethoxy-6-oxo-1,6-dihydropyridin-3-yl)-2-fluorophenyl)acetamide] | 5.00 to 6.30 | –
13 | 6.30 to 7.00 | CCOc1cc(-c2ccc(CC(=O)Nc3cnc(C(C)(C)O)c(C(F)(F)F)c3)c(F)c2)c[nH]c1=O [Example 1, 2-(4-(5-Ethoxy-6-oxo-1,6-dihydropyridin-3-yl)-2-fluorophenyl)-N-(6-(2-hydroxypropan-2-yl)-5-(trifluoromethyl)pyridin-3-yl)acetamide] | 6.30 to 7.00 | –
14 | > 7.00 | CCOc1cc(-c2ccc(CC(=O)Nc3ccc(CC(C)(C)CO)c(C(F)(F)F)c3)cc2F)c[nH]c1=O [Example 6, 2-(4-(5-Ethoxy-6-oxo-1,6-dihydropyridin-3-yl)-3-fluorophenyl)-N-(4-(3-hydroxy-2,2-dimethylpropyl)-3-(trifluoromethyl)phenyl)acetamide] | > 7.00 | –
15 | > 7.00 | CCOc1cc(-c2ccc(CC(=O)Nc3ccc(CC(C)(C)CO)c(C(F)(F)F)c3)c(F)c2)c[nH]c1=O [Example 5, 2-(4-(5-Ethoxy-6-oxo-1,6-dihydropyridin-3-yl)-2-fluorophenyl)-N-(4-(3-hydroxy-2,2-dimethylpropyl)-3-(trifluoromethyl)phenyl)acetamide] | > 7.00 | –
16 | 6.30 to 7.00 | CCOc1cc(-c2ccc(CC(=O)Nc3cc(C(F)(F)F)cc(C(F)(F)F)c3)c(F)c2)c[nH]c1=O [Example 25, N-(3,5-bis(trifluoromethyl)phenyl)-2-(4-(5-ethoxy-6-oxo-1,6-dihydropyridin-3-yl)-2-fluorophenyl)acetamide] | 5.00 to 6.30 | –
17 | 5.00 to 6.30 | CCOc1cc(-c2ccc(CC(=O)Nc3ccc(C(N)=O)c(C(F)(F)F)c3)c(F)c2)c[nH]c1=O [Example 23, 4-(2-(4-(5-ethoxy-6-oxo-1,6-dihydropyridin-3-yl)-2-fluorophenyl)acetamido)-2-(trifluoromethyl)benzamide] | 5.00 to 6.30 | –
